Activity calls are given as the source filed them. The rule behind the calls is not given here.
Key:
Rattus norvegicus [1] = test: Increase in hepatic vitamin C level in Wistar rat at 1 g/kg, ip after 1.5 hrs relative to control; assay type: functional
Rattus norvegicus [2] = test: Increase in hepatic vitamin C level in Wistar rat at 1 g/kg, ip after 3 hrs relative to control; assay type: functional
Rattus norvegicus [3] = test: Increase in hepatic vitamin C level in Wistar rat at 1 g/kg, ip after 6 hrs relative to control; assay type: functional
Rattus norvegicus [4] = test: Increase in plasma glutamate oxaloacetate transaminase level in Wistar rat at 1 g/kg, ip after 1.5 hrs relative to control; assay type: functional
Rattus norvegicus [5] = test: Increase in plasma glutamate oxaloacetate transaminase level in Wistar rat at 1 g/kg, ip after 3 hrs relative to control; assay type: functional
Rattus norvegicus [6] = test: Increase in plasma glutamate oxaloacetate transaminase level in Wistar rat at 1 g/kg, ip after 6 hrs relative to control; assay type: functional
Rattus norvegicus [7] = test: Increase in plasma glutamate oxaloacetate transaminase level in Wistar rat at 1 g/kg, ip after 12 hrs relative to control; assay type: functional
Rattus norvegicus [8] = test: Increase in plasma glutamate oxaloacetate transaminase level in Wistar rat at 1 g/kg, ip after 24 hrs relative to control; assay type: functional
Rattus norvegicus [9] = test: Increase in plasma glutamate pyruvate transaminase level in Wistar rat at 1 g/kg, ip after 1.5 hrs relative to control; assay type: functional
Rattus norvegicus [10] = test: Increase in plasma glutamate pyruvate transaminase level in Wistar rat at 1 g/kg, ip after 3 hrs relative to control; assay type: functional
Rattus norvegicus [11] = test: Increase in plasma glutamate pyruvate transaminase level in Wistar rat at 1 g/kg, ip after 6 hrs relative to control; assay type: functional
Rattus norvegicus [12] = test: Increase in plasma glutamate pyruvate transaminase level in Wistar rat at 1 g/kg, ip after 12 hrs relative to control; assay type: functional
Rattus norvegicus [13] = test: Increase in plasma glutamate pyruvate transaminase level in Wistar rat at 1 g/kg, ip after 24 hrs relative to control; assay type: functional
Rattus norvegicus [14] = test: Increase in hepatic vitamin C level in Wistar rat at 1 g/kg, ip after 12 hrs relative to control; assay type: functional
Rattus norvegicus [15] = test: Increase in hepatic vitamin C level in Wistar rat at 1 g/kg, ip after 24 hrs relative to control; assay type: functional
Rattus norvegicus [16] = test: Increase in phosphorylated JNK level in Wistar rat at 1 g/kg, ip after 3 hrs relative to control; assay type: functional, organism-based
Rattus norvegicus [17] = test: Increase in phosphorylated ERK level in Wistar rat at 1 g/kg, ip after 3 hrs relative to control; assay type: functional, organism-based
Rattus norvegicus [18] = test: Increase in phosphorylated p38 MAPK level in Wistar rat at 1 g/kg, ip after 6 hrs relative to control; assay type: functional, organism-based

Q: `N[C@H]1C(O)O[C@H](CO)C(O)[C@@H]1O` (single isomer, unassigned) [GLUCOSAMINE] was tested. Which Activity (Rattus norvegicus [1]) did it give?
A: The Activity was 1571 nmol/g.

Q: And the Activity (Rattus norvegicus [2])?
A: The Activity was 1137 nmol/g.

Q: And the Activity (Rattus norvegicus [3])?
A: The Activity was 1118 nmol/g.

Q: What about the Activity (Rattus norvegicus [4]) of the same molecule?
A: The Activity was 52.3 nmol/g.

Q: And the Activity (Rattus norvegicus [5])?
A: The Activity was 124 nmol/g.

Q: What about the Activity (Rattus norvegicus [6]) of the same molecule?
A: The Activity was 517 nmol/g.

Q: And the Activity (Rattus norvegicus [7])?
A: Its Activity is 793 nmol/g.

Q: And the Activity (Rattus norvegicus [8])?
A: The Activity was 2560 nmol/g.

Q: What about the Activity (Rattus norvegicus [9]) of the same molecule?
A: The Activity was 25.8 nmol/g.

Q: What about the Activity (Rattus norvegicus [10]) of the same molecule?
A: Its Activity is 49.7 nmol/g.

Q: And the Activity (Rattus norvegicus [11])?
A: The Activity was 295 nmol/g.

Q: And the Activity (Rattus norvegicus [12])?
A: The Activity was 426 nmol/g.

Q: What about the Activity (Rattus norvegicus [13]) of the same molecule?
A: The Activity was 1519 nmol/g.

Q: And the Activity (Rattus norvegicus [14])?
A: The Activity was 1104 nmol/g.

Q: And the Activity (Rattus norvegicus [15])?
A: The Activity was 978 nmol/g.

Q: What about the Activity (Rattus norvegicus [16]) of the same molecule?
A: Its Activity is “Active”.

Q: What about the Activity (Rattus norvegicus [17]) of the same molecule?
A: Its Activity is “Active”.

Q: What about the Activity (Rattus norvegicus [18]) of the same molecule?
A: The Activity was “Active”.

Source: ChEMBL document CHEMBL1148662, “Activation of mitogen activated protein kinase (MAPK) during D-galactosamine intoxication in the rat liver” (2006)
